According to ChEMBL document CHEMBL1201862, “PubChem BioAssay data set” (2004):
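96-well plates; 48 h exposure; 5 concentrations. Endpoints by linear interpolation between flanking doses. Not reached: highest tested concentration assigned. Here, GI50 denotes the concentration required for 50% inhibition of growth.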 Active and inactive are the calls of the source. Rule as the data show it: active = GI50 up to about 1.1 µM and inactive = higher.

Columns and labels:
Experiment in all cases: inhibition of tumour cell growth, NCI panel, 48 h
[1] = system: 786-0
[2] = system: A549
[3] = system: ACHN
[4] = system: BT-549
[5] = system: CAKI-1
[6] = system: HT-29
[7] = system: Hs-578T
[8] = system: IGROV-1
[9] = system: KM12
[10] = system: MDA-MB-231
[11] = system: MOLT-4
[12] = system: NCI-H460
[13] = system: OVCAR-8
[14] = system: SF-295
[15] = system: SK-MEL-28
[16] = system: SK-OV-3
[17] = system: SR
[18] = system: T47D
[19] = system: UACC-257
[20] = system: SF-539

Measured: GI50

Cc1ccc(S(=O)(=O)ON2C(=O)c3cccc4cc([N+](=O)[O-])cc(c34)C2=O)cc1
inactive: [1] 47.5 µM | [2] > 100 µM | [3] 62.1 µM | [4] 27 µM | [5] 55.8 µM | [6] 28.6 µM | [7] 68.1 µM | [8] 40.6 µM | [9] 32.6 µM | [10] 56.2 µM | [11] 28.6 µM | [12] 19.6 µM | [13] > 100 µM | [14] > 100 µM | [15] > 100 µM | [16] 38.9 µM | [17] 26.7 µM | [18] 51.6 µM | [19] 66.2 µM

Nc1nc(N)nc(-c2cnc3ccccc3c2)n1
inactive: [1] > 100 µM | [2] > 100 µM | [3] > 100 µM | [4] > 100 µM | [5] > 100 µM | [7] > 100 µM | [8] 58.6 µM | [9] > 100 µM | [10] 86.7 µM | [11] 20.7 µM | [12] > 100 µM | [13] > 100 µM | [14] > 100 µM | [20] > 100 µM | [15] > 100 µM | [16] 87.9 µM | [17] 37 µM | [18] > 100 µM | [19] > 100 µM

C[C@H]1CC[C@@]2(NC1)O[C@H]1C[C@H]3[C@@H]4CC[C@H]5C[C@@H](O)CC[C@]5(C)[C@H]4CC[C@]3(C)[C@H]1[C@@H]2C
inactive: [1] 39.9 µM | [2] > 100 µM | [3] 39.5 µM | [4] > 100 µM | [5] > 100 µM | [6] 47.9 µM | [7] 47 µM | [8] 71.6 µM | [9] 71.8 µM | [10] 32.2 µM | [11] > 100 µM | [12] 33.4 µM | [13] 38.8 µM | [14] 55.7 µM | [20] > 100 µM | [16] > 100 µM | [17] 22.9 µM | [18] > 100 µM | [19] > 100 µM

Oc1cc(-c2ccc3ccccc3c2)nc2ncccc12
inactive: [1] 12.1 µM | [2] 4.68 µM | [3] 31.9 µM | [4] 9.93 µM | [6] 4.16 µM | [7] 9.35 µM | [8] 6.4 µM | [9] 4.88 µM | [10] 9.02 µM | [11] 4.06 µM | [13] 23 µM | [20] 6.95 µM | [15] 8.63 µM | [16] 19.6 µM | [17] 2.14 µM | [18] 11.6 µM | [19] 12.4 µM

O=C(Cc1ccccc1)N/N=C1\C(=O)Nc2ccccc21
inactive: [1] 80.5 µM | [2] > 100 µM | [3] > 100 µM | [4] > 100 µM | [6] > 100 µM | [7] 65.3 µM | [8] > 100 µM | [9] > 100 µM | [10] 18.8 µM | [11] > 100 µM | [12] > 100 µM | [13] > 100 µM | [14] 25.8 µM | [20] 23.1 µM | [16] > 100 µM | [17] > 100 µM | [18] 63.2 µM | [19] > 100 µM

COC(=O)C(/C(=N/NC(N)=O)C(=O)Nc1ccc(C)cc1)c1nc2ccc([N+](=O)[O-])cc2nc1O (configuration not stated)
inactive: [1] > 100 µM | [2] > 100 µM | [4] > 100 µM | [5] > 100 µM | [6] > 100 µM | [7] 67.3 µM | [8] > 100 µM | [9] 74.3 µM | [10] > 100 µM | [11] > 100 µM | [12] 52.2 µM | [13] > 100 µM | [14] > 100 µM | [20] > 100 µM | [15] > 100 µM | [16] > 100 µM | [17] > 100 µM | [18] > 100 µM | [19] > 10 µM

OC(c1ccc(-c2ccccc2)cc1)(c1ccc(-c2ccccc2)cc1)c1ccc(-c2ccccc2)cc1
inactive: [1] > 100 µM | [2] > 100 µM | [3] > 100 µM | [4] > 100 µM | [5] > 100 µM | [6] > 100 µM | [7] > 100 µM | [8] > 100 µM | [9] > 100 µM | [10] 53.7 µM | [11] 28.6 µM | [12] > 100 µM | [13] > 100 µM | [14] > 100 µM | [15] > 100 µM | [16] > 100 µM | [17] > 100 µM | [18] > 100 µM | [19] > 100 µM

COc1ccc(C2C3=C(Nc4ncnn42)c2ccccc2OC3c2ccccc2)cc1 (configuration not stated)
inactive: [1] 47.1 µM | [2] 14.9 µM | [3] 18.5 µM | [4] 5.26 µM | [5] 26.5 µM | [7] 19.1 µM | [8] 27.1 µM | [9] 14.6 µM | [10] 49.1 µM | [11] 6.27 µM | [12] 27.2 µM | [13] 80.2 µM | [14] 27.8 µM | [20] 40 µM | [16] 37.5 µM | [17] 8.47 µM | [18] 13.7 µM | [19] 70 µM

Cc1cccc(/C=C2\CCCCCC2=O)c1
inactive: [1] > 100 µM | [2] > 100 µM | [3] > 100 µM | [4] > 100 µM | [5] > 100 µM | [6] > 100 µM | [7] > 100 µM | [8] > 100 µM | [9] > 100 µM | [10] > 100 µM | [11] 99.8 µM | [12] 99.8 µM | [14] > 100 µM | [15] > 100 µM | [16] > 100 µM | [17] > 100 µM | [18] > 100 µM | [19] > 100 µM

COc1cccc2c1CCc1c(-c3ccc(F)cc3)cc(-c3ccc4ccccc4n3)nc1-2
inactive: [1] > 100 µM | [2] > 100 µM | [3] > 100 µM | [4] > 100 µM | [5] > 100 µM | [6] > 100 µM | [7] > 100 µM | [8] > 100 µM | [9] > 100 µM | [10] > 100 µM | [11] > 100 µM | [12] > 100 µM | [13] > 100 µM | [14] > 100 µM | [20] > 100 µM | [16] > 100 µM | [17] > 100 µM | [18] > 100 µM | [19] > 100 µM

O=c1c(C(c2ccccc2)c2c(O)oc3cc(O)ccc3c2=O)c(O)oc2cc(O)ccc12
inactive: [2] > 100 µM | [4] > 100 µM | [5] > 100 µM | [6] > 100 µM | [7] > 100 µM | [8] > 100 µM | [10] > 100 µM | [11] > 100 µM | [12] > 100 µM | [13] > 100 µM | [14] > 100 µM | [20] > 100 µM | [15] > 100 µM | [16] > 100 µM | [17] > 100 µM | [18] > 100 µM | [19] > 100 µM
